Test results from US8673911B2, “Inhibitors of histone deacetylase” (MethylGene Inc., priority 2007, dated 2014).

Target: one or more of HDAC4, HDAC5, HDAC6, HDAC7, HDAC8, HDAC9 and HDAC11
Assay: Inhibition of histone deacetylase enzymatic activity (fluorogenic Boc-Lys(Ac)-AMC / Boc-Lys(trifluoroacetyl)-AMC substrate)
Type: biochemical
Conditions: against one or more of HDAC4, HDAC5, HDAC6, HDAC7, HDAC8, HDAC9 and HDAC11
Method: Inhibition of HDAC-1,2,3,6 and 8
The following protocol is used to assay the compounds of the invention. In the assay, the buffer used is 25 mM HEPES, pH 8.0, 137 mM NaCl, 2.7 mM KCl, 1 mM MgCl2 and the substrate is Boc-Lys(Ac)-AMC in a 50 mM stock solution in DMSO. The enzyme stock solution is 4.08 μg/mL in buffer.
The compounds are pre-incubated (2 μl, in DMSO diluted to […] in buffer for transfer to assay plate) with enzyme (20 μL of 4.08 μg/mL) for 10 minutes at room temperature (35 μL pre-incubation volume). The mixture is pre-incubated for 5 minutes at room temperature. The reaction is started by bringing the temperature to 37° C. and adding 15 μL substrate. Total reaction volume is 50 μL. The reaction is stopped after 20 minutes by addition of 50 μL developer, prepared as directed by Biomol (FLUOR DE LYS™ developer, Cat. # KI-105). A plate is incubated in the dark for 10 minutes at room temperature before reading (λEx=360 nm, λEm=470 nm, Cutoff filter at 435 nm).
Inhibition of Class II HDAC and HDAC-11
A 30 mM stock of Boc-Lys(trifluoroacetyl)-AMC substrate is prepared in DMSO. 2 μL test compound in DMSO is diluted to 50 μL in buffer (25 mM HEPES, pH 8.0, 137 mM NaCl, 2.7 mM KCl, 1 mM MgCl2, 0.1% BSA) and pre-incubated with HDAC enzyme (30 μL of a final enzyme concentration of 0.1-0.2 nM) for 10 minutes at room temperature. Reaction is started by adding 18 μL Boc-Lys(trifluoroacetyl)-AMC substrate and incubating at 37° C. for 20-30 minutes. The reaction is stopped by adding 50 μL trypsin (1 mg/mL) and a known HDAC inhibitor. The plate is then incubated in the dark for 20 minutes at room temperature and read with Ex=360 nm, Em=470 nm, cutoff filter at 435 nm.

| IC50 [nM] | SMILES |
| --- | --- |
| 250 to 500 | O=C(NO)c1sc2ccc(NS(=O)(=O)c3cccs3)cc2c1-c1ccccc1 [Compound 160] |
| < 250 | O=C(NO)c1sc(-c2ccc(OCCN3CCOCC3)cc2)nc1-c1ccccc1 [Compound 146, N-hydroxy-2-(4-(2-morpholinoethoxy)phenyl)-4-phenylthiazole-5-carboxamide] |
| 500 to 750 | O=C(Nc1ccccc1Oc1ccccc1)c1ccc(C(=O)NO)c(-c2ccccc2)c1 [compound 105] |
| < 250 | O=C(NO)c1sc(C2CCN(S(=O)(=O)c3ccccc3)CC2)nc1-c1ccccc1 [Compound 151, N-hydroxy-4-phenyl-2-(1-(phenylsulfonyl)piperidin-4-yl)thiazole-5-carboxamide] |
| < 250 | O=C(NO)c1sc2ccc(NS(=O)(=O)Cc3ccccc3)cc2c1-c1ccccc1 [Compound 157, N-hydroxy-3-phenyl-5-(phenylmethyl-sulfonamido) benzo[b]thiophene-2-carboxamide] |
| < 250 | O=C(Cc1ccc(C(F)(F)F)cc1)Nc1ccc(C(=O)NO)c(-c2ccccc2)c1 [Compound 155, N-hydroxy-5-(2-(4-(trifluoromethyl)phenyl)acetamido) biphenyl-2-carboxamide] |
| < 250 | CCOC(=O)N1CCC(c2nc(-c3ccccc3)c(C(=O)NO)s2)CC1 [Compound 147, ethyl 4-(5-(hydroxycarbamoyl)-4-phenylthiazol-2-yl)piperidine-1-carboxylate] |
| 250 to 500 | O=C(NO)c1sc(-c2ccccn2)nc1-c1ccccc1 [Compound 153, N-hydroxy-4-phenyl-2-(pyridin-2-yl)thiazole-5-carboxamide] |
| < 250 | CN(Cc1ccccc1)C(=O)OCc1cc(-c2ccccc2)c(C(=O)NO)s1 [Compound 181, (5-(hydroxycarbamoyl)-4-phenylthiophen-2-yl)methyl benzyl(methyl)carbamate] |
| < 250 | CN(Cc1ccccc1)Cc1cc(-c2ccccc2)c(C(=O)NO)s1 [Compound 182, 5-((benzyl(methyl)amino)methyl)-N-hydroxy-3-phenylthiophene-2-carboxamide] |
| 250 to 500 | O=C(NO)c1cnc(-c2ccccc2)nc1-c1cccc(F)c1 [Compound 143, 4-(3-fluorophenyl)-N-hydroxy-2-phenylpyrimidine-5-carboxamide] |
| 500 to 750 | COc1ccc(S(=O)(=O)Nc2ccc3sc(C(=O)NO)c(-c4ccccc4)c3c2)cc1 [Compound 154, N-hydroxy-5-(4-methoxyphenyl-sulfonamido)-3-phenylbenzo[b] thiophene-2-carboxamide] |
| < 250 | O=C(NO)c1sc(C(c2ccccc2)c2ccccc2)nc1-c1ccccc1 [Compound 150, 2-benzhydryl-N-hydroxy-4-phenylthiazole-5-carboxamide] |
| < 250 | CC(=O)Nc1ccc(S(=O)(=O)N2CCC(c3nc(-c4ccccc4)c(C(=O)NO)s3)CC2)cc1 [Compound 158, 2-(1-(4-acetamidophenyl-sulfonyl)piperidin-4-yl)-N-hydroxy-4-phenylthiazole-5-carboxamide] |
| < 250 | O=C(NO)c1sc(-c2ccc3c(c2)OCO3)nc1-c1ccccc1 [compound 81] |
| < 250 | CS(=O)(=O)N1CCC(c2nc(-c3ccccc3)c(C(=O)NO)s2)CC1 [Compound 148, N-hydroxy-2-(1-(methylsulfonyl)piperidin-4-yl)-4-phenylthiazole-5-carboxamide] |
| < 250 | O=C(NO)c1sc(C2CCN(C(=O)N3CCCC3)CC2)nc1-c1ccccc1 [Compound 145, N-hydroxy-4-phenyl-2-(1-(pyrrolidine-1-carbonyl)piperidin-4-yl)thiazole-5-carboxamide] |

Second part, the compound before the results:

| SMILES | IC50 [nM] |
| --- | --- |
| O=C(NO)c1sc(-c2cccs2)nc1-c1ccccc1 [Compound 140, N-hydroxy-4-phenyl-2-(thiophen-2-yl)thiazole-5-carboxamide] | 500 to 750 |
| O=C(NO)c1ccccc1-c1cccc(-c2ccccc2)c1 [Compound 13] | 750 to 5000 |
| O=C(Nc1ccc2sc(C(=O)NO)c(-c3ccccc3)c2c1)OCc1ccccc1 [Compound 131, benzyl 2-(hydroxycarbamoyl)-3-phenylbenzo[b] thiophen-5-ylcarbamate] | 500 to 750 |
| O=C(NO)c1ccccc1-c1cccc([N+](=O)[O-])c1 [Compound 26, N-hydroxy-3′-nitrobiphenyl-2-carboxamide] | 750 to 5000 |
| CN(C)c1ccc(-c2ccc(C(=O)NO)c(-c3ccccc3)c2)cc1 [Compound 116, 5-(4-dimethylamino-phenyl)-N-hydroxybiphenyl-2-carboxamide] | < 250 |
| O=C(NO)c1sc(-c2ccc3c(c2)CCO3)nc1-c1ccccc1 [Compound 139, 2-(2,3-dihydrobenzofuran-5-yl)-N-hydroxy-4-phenylthiazole-5-carboxamide] | 750 to 5000 |
| COc1cccc(-c2ccc(C(=O)NO)c(-c3cccc(OC)c3)c2)c1 [Compound 50] | 750 to 5000 |
| O=C(NO)c1sc(N2CCCc3ccccc32)nc1-c1ccccc1 [Compound 121, 2-(3,4-dihydroquinolin-1(2H)-yl)-N-hydroxy-4-phenylthiazole-5-carboxamide] | < 250 |
| O=C(NO)c1sc(-c2ccccc2)nc1-c1ccccc1 [Compound 74, N-hydroxy-2,4-diphenylthiazole-5-carboxamide] | < 250 |
| Cc1cscc1-c1cccc(-c2ccccc2C(=O)NO)c1 [Compound 29, N-hydroxy-3′-(4-methyl-thiophen-3-yl) biphcnyl-2-carboxamidc] | 500 to 750 |
| O=C(NO)c1ccc(-c2ccccc2)cc1-c1ccccc1 [Compound 52] | < 250 |
| Cc1cscc1-c1ccc(C(=O)NO)c(-c2cscc2C)c1 [Compound 51, N-hydroxy-2,4-bis(4-methylthiophen-3-yl)benzamide] | < 250 |
| O=C(NO)c1ccccc1-c1cccc(F)c1 [Compound 27, 3′-fluoro-N-hydroxybiphenyl-2-carboxamide] | 750 to 5000 |
| O=C(NO)c1ccccc1-n1cccc1 [Compound 21, N-hydroxy-2-(lH-pyrrol-1-yl)benzamide] | 750 to 5000 |
| O=C(NO)c1sc(-c2ccccc2)cc1-c1ccccc1 [Compound 89, N-hydroxy-3,5-diphenylthiophene-2-carboxamide] | 250 to 500 |
| O=C(NO)c1sc(-c2ccc(N3CCOCC3)cc2)nc1-c1ccccc1 [Compound 109, N-hydroxy-2-(4-morpholino-phenyl)-4-phenylthiazole-5-carboxamide] | < 250 |
| O=C(NO)c1sc(-c2csc3ccccc23)nc1-c1ccccc1 [Compound 110, 2-(benzo[b]thiophen-3-yl)-N-hydroxy-4-phenylthiazole-5-carboxamide] | < 250 |
| COc1ccc(-c2nc(-c3ccc(F)cc3)c(C(=O)NO)s2)cc1 [Compound 80, 4-(4-fluorophenyl)-N-hydroxy-2-(4-methoxyphenyl)thiazole-5-carboxamide] | < 250 |
| O=C(NO)c1sc(-c2ccccc2)cc1-c1ccccc1 [Compound 92, N-hydroxy-3,5-diphenylthiophene-2-carboxamide] | < 250 |
| O=C(NO)c1sc(C2CCN(Cc3ccccc3)CC2)nc1-c1ccccc1 [Compound 132, 2-(1-benzylpiperidin-4-yl)-N-hydroxy-4-phenylthiazole-5-carboxamide] | < 250 |
| O=C(NO)c1cnc(-c2ccccc2)nc1-c1ccccc1 [Compound 141, N-hydroxy-2,4-diphenylpyrimidine-5-carboxamide] | 250 to 500 |
| O=C(NO)c1sc(C2CCN(C(=O)c3ccccc3)CC2)nc1-c1ccccc1 [Compound 133, 2-(1-benzoylpiperidin-4-yl)-N-hydroxy-4-phenylthiazole-5-carboxamide] | < 250 |
| O=C(NO)c1sc(-c2cccnc2)nc1-c1ccccc1 [Compound 120, N-hydroxy-4-phenyl-2-(pyridin-3-yl)thiazole-5-carboxamide] | < 250 |
| COc1cccc(-c2cc(C)ccc2C(=O)NO)c1 [Compound 33, N-hydroxy-3′-methoxy-5-mcthylbiphenyl-2-carboxamide] | 500 to 750 |
| COc1cccc(-c2cc(F)ccc2C(=O)NO)c1 [Compound 98, 5-fluoro-N-hydroxy-3′-methoxybiphenyl-2-carboxamidc] | 500 to 750 |
| Cc1cscc1-c1ccccc1C(=O)NO [Compound 24, N-hydroxy-2-(4-mcthylthiophen-3-yl)benzamide] | 750 to 5000 |
| O=C(NO)c1sc(-c2ccccc2)cc1-c1ccccc1 [Compound 86, N-hydroxy-3,5-diphenylthiophene-2-carboxamide] | < 250 |
| O=C(NO)c1cn(-c2ccccc2)nc1-c1ccc(F)cc1 [Compound 108, 3-(4-fluorophenyl)-N-hydroxy-1-phenyl-1H-pyrazole-4-carboxamide] | 750 to 5000 |
